According to patent publication US6995283B2, “Benzophenones as inhibitors of reverse transcriptase” (priority 2001, dated 2006):
In brackets after ≈: the same amount, converted by molar mass. Where a name gives a salt, the structure may show the parent alone. Read-outs that look alike come from different tables or passages of the source.

Experiments:
[1] = Pharmacokinetic studies in male beagle dogs; format: in vivo, beagle dog
Method: Compound 34 (634A in tables and on plots) was dosed as a solid as well as in solution form to male beagle dogs according to the following protocol. Plasma samples were analyzed using the following methods:
Blood samples from the test animals were drawn at periodic intervals, before, and after administration of the test articles. The samples were dispensed into chilled (˜+4° C.) blood tubes containing EDTA anticoagulant which were stored “on ice” (˜+4° C.) prior to centrifugation and separation of the plasma fractions. The plasma samples were transferred to frozen storage (−20° C.) within 30 minutes of blood sampling.
The plasma samples were thawed at room temperature, vortex-mixed for 10 seconds, and 100 μL aliquots transferred to 96-well micro-plates. […]
The supernatant fractions of the wells were transferred to a fresh micro-plate and then evaporated to dryness at 37° C. under a stream of (O2-free) nitrogen. The well residues were reconstituted in 100 μL volumes of acetonitrile:water:acetic acid (40:59.9:0.1 v/v/v) and 20 μL volumes were analyzed by HPLC-MS-MS. […]
The measurement of signal peaks areas, calibration and quantification were carried out using the Turbo-Quan V1.5 (Sciex Inc.) data acquisition and processing software (DAQ) suite. […]

[2] = Solubility; format: physicochemical
Method: A stir bar was put in the vial. The vials were closed with caps and placed on stir plate. […] After equilibration, the samples were centrifuged. An accurate aliquot of clear solution was transferred to a HPLC vial by micropipette. The solubility was determined by HPLC with UV detector and against standard.

[3] = Oral bioavailability in male Sprague-Dawley rats; format: in vivo, Sprague-Dawley (CD) rat; settings: for AUC(0-inf): rat, plasma
Method: Methods used were generally as described in Example 53, with the following modifications: Sample Collection—In addition to anticoagulant (EDTA), an enzyme inhibitor cocktail containing 50 μL of 100 mM AEBSF (4-(2-aminoethyl)benzenessulfonylfluoride HCl, CalBioChem, cat. no. 101500); 200 mM Benzamide(CalBioChem, cat. no. 199001); and 200 mM EACA (Epislon Amino-n-caproic acid, CalBioChem cat. no. 1381) in FTA Hemaglutionation Buffer (Becton Dickson, cat. no. 4311248) per 1 mL of blood was added to rat blood samples at the time of collection.
HPLC-MS-MS Conditions—Chromatography was performed on a Phenomenex Aqua C18 HPLC Mercury Cartridge (3-micron particle size, 20 mm×2 mm id) or Luna C18 column (50×2 mm).

[4] = system: Nev-R mutant virus; assay: Anti-HIV activity of parent compounds, Nev-R mutant virus (Table 1; HeLa-CD4-LTR-β-gal cell assay); format: cell-based, HIV-1; settings: Human immunodeficiency virus 1, read-out: Nev-R
Method: (§1) The HeLa cell assay was performed according to a modifcation of Kimpton J. and Emerman M., Detection of replication-competent and pseudotyped human inmmunodeficiency virus with a sensitive cell line on the basis of activation of an integrated β-galactosidase gene, J. Virol. 66:2232-2239 (1992), in which HIV-1 infection is detected by the activation of an HIV-LTR driven β-galactosidase reporter that is integrated into the genome of a CD4^+ HeLa cell line. Quantitation of β-galactosidase is achieved by measuring the activation of a chemiluminescent substrate (Tropix). The concentration of each compound required to inhibit 50% (IC50) of the HIV-1 induced β-galactosidase signal, relative to untreated controls, was determined for each isogenic, recombinant virus.
(§2) HeLa-CD4-LTR-β-gal cells are propagated in DMEM containing 10% fetal bovine serum+0.2 mg/ml geneticin+0.1 mg/ml hygromycin B. Cells are split by standard trypsinization when confluency reaches 80% (roughly every 2 to 3 days).
(§3) DNA encoding the HIV-1 reverse transcriptase was subcloned from a M13 phage into a general shuttle vector, pBCSK+, as a ˜1.65 kbp EcoRI/HindIII ended DNA fragment. The HIV DNA insert of the resulting plasmid, pRT2, was completely sequenced on both strands prior to use in site directed mutagenesis experiments. Specific amino acid replacements were made using Stratagene Quick Change reagents and mutagenic oligonucleotides from Oligos. […]
(§4) Mutant HIV-1 strains were isolated by a modified Recombinant Virus Assay (Kellamn P. and Larder B., Recombinant virus assay: a rapid, phenotypic assay for assessment of drug susceptibility of human immunodeficiency virus type 1 isolates, Antimicrobial Agents and Chemotherapy, 38:23-30,1994). […] Transfected cell cultures were expanded and monitored until syncitia formation and CPE were extensive. […]
(§5) HIV-1 virus stocks must be titered in the MAGI assay system to establish the appropriate infecting dose. The endpoint for this assay is relative light units (RLUs), and titer is recorded as RLUs/ml. […]

[5] = system: HIV-1 wild type virus; assay: Anti-HIV activity of parent compounds, wild type virus (Table 1; HeLa-CD4-LTR-β-gal cell assay); format: cell-based; settings: Human immunodeficiency virus 1, read-out: Wt
Method: as §1, §2, §3, §4, §5

CCC(=O)NS(=O)(=O)c1ccc(NC(=O)COc2ccc(Cl)cc2C(=O)c2cc(Cl)cc(C#N)c2)c(C)c1 [Compound 34, 2-[4-chloro-2-(3-chloro-5-cyanobenzoyl)phenoxy]-N-{2-methyl-4-[(propionylamino)sulfonyl]phenyl}acetamide, Sodium Salt]
appearance of active inhibitor compound 40 in plasma after administration [1]: appears in the plasma
bioavailability after oral administration (in words) ([1]; oral): excellent bioavailability
solubility ([2]; water, thermodynamic from solid, water, Amorphous, read-out: Solubility): > 100 mg/mL
solubility ([2]; water, thermodynamic from solid, water, Crystal Form 1, read-out: Solubility): 92 mg/mL
solubility ([2]; water, thermodynamic from solid, water, Crystal Form 4, read-out: Solubility): 2.5 mg/mL
solubility ([2]; water, thermodynamic from solid, water, Crystal Form 9, read-out: Solubility): > 100 mg/mL
solubility ([2]; water, thermodynamic from solid, water, Crystal Form 10, read-out: Solubility): > 100 mg/mL
solubility ([2]; water, thermodynamic from solid, water, Crystal Form 12, read-out: Solubility): > 100 mg/mL
appearance of active inhibitor compound 40 in plasma after administration [3]: appears in the plasma
bioavailability after oral administration (in words) ([3]; oral, in comparison to the parent compound 40): improved bioavailability

Cc1cc(S(N)(=O)=O)ccc1NC(=O)COc1ccc(Cl)cc1C(=O)c1cc(Cl)cc(C#N)c1 [Compound 40, N-[4-(aminosulfonyl)-2-methylphenyl]-2-[4-chloro-2-(3-chloro-5-cyanobenzoyl)phenoxy]acetamide]
IC50 [4]: 0.4 to 1.2 nM
solubility ([2]; fassgf or other biorelevant, thermodynamic from solid, SIF, Crystal Form 1, read-out: Solubility): 0.0029 mg/mL (≈ 5.59 µM)
IC50 [5]: 0.5 to 1.8 nM
Mean Exposures of 40 Fapp ([3]; free acid, Amorph., PO (soln) 1 mg/kg, DMSO:Tween-80:5% Mannitol (20:0.1:79.9)): 7%
AUC(0-inf) ([3]; free acid, Amorph., IV 1 mg/kg, PEG400:Solutol:Water (30:20:50), read-out: Mean Exposures of 40 AUC0-∞): 1740 ± 363 ng·h/mL
AUC(0-inf) ([3]; free acid, Amorph., PO (soln) 1 mg/kg, DMSO:Tween-80:5% Mannitol (20:0.1:79.9), n = 1, read-out: Mean Exposures of 40 AUC0-∞): 128 ng·h/mL

CCC(=O)NS(=O)(=O)c1ccc(NC(=O)COc2ccc(Cl)cc2C(=O)c2cc(Cl)cc(C#N)c2)c(C)c1 [Compound 41, 2-[4-chloro-2-(3-chloro-5-cyanobenzoyl)phenoxy]-N-{2-methyl-4-[(propionylamino)sulfonyl]phenyl}acetamide]
solubility (in words) ([2]; in comparison with compound 40): improved solubility

Cc1cc(S(N)(=O)=O)ccc1NC(=O)COc1ccc(Cl)cc1C(=O)c1cc(F)cc(C(F)(F)F)c1 [Compound 71]
IC50 [4]: 0.4 to 14 nM
IC50 [5]: 0.1 to 28 nM

Cc1cc(S(N)(=O)=O)ccc1NC(=O)COc1ccc(Cl)cc1C(=O)c1cc(C#N)cc(C(F)(F)F)c1 [Compound 58]
IC50 [4]: 0.9 nM
IC50 [5]: 2.4 nM

CCC(=O)NS(=O)(=O)c1ccc(NC(=O)COc2ccc(Cl)cc2C(=O)c2cc(Cl)cc(C#N)c2)c(C)c1.[Ca] [Calcium salt, 2-[4-chloro-2-(3-chloro-5-cyanobenzoyl)phenoxy]-N-{2-methyl-4-[(propionylamino)sulfonyl]phenyl}acetamide, Calcium Salt, Form 2]
solubility ([2]; water, Crystal Form 2): 0.7 mg/mL
